From patent publication US7285566B2, “Resistance-repellent retroviral protease inhibitors” (priority 2002, dated 2007)

Legend:
D30N mutant HIV protease = D30N mutant HIV protease (Human immunodeficiency virus type 1 group M subtype B, UniProt P03367, D530N); assay: Effect of D30N protease mutation on inhibitor binding
[1] = system: highly cross-resistant clinical HIV-1 strains; assay: In vitro activity against highly PI-resistant clinical HIV-1 strains from AIDS patients; assay type: cell-based; conditions: for potency against the multidrug resistant strains of HIV: multidrug resistant vs wild type strains
Procedure: The sensitivities of HIV-1LAI, HIV-1Ba-L, HIV-2EHO and the primary HIV-1 isolates against various drugs were determined as previously described with minor modifications (Shiraska et al., Proc. Natl. Acad. Sci. USA, 92, 2398-2402 (1995)).

HIV-1UIC-P62 = assay: Sensitivity of compound 1-selected HIV-1 (passage 62) to PIs; assay type: cell-based; conditions: for IC50 fold greater than that of HIV-1NL4-3: HIV-1UIC-P62 (passage 62 with 2 μM 1) vs parental HIV-1NL4-3; for sensitivity compared with the parental HIV-1NL4-3: HIV-1UIC-P62

SMILES: COc1ccc(S(=O)(=O)N(CC(C)C)C[C@@H](O)[C@H](Cc2ccccc2)NC(=O)O[C@H]2CO[C@H]3OCC[C@H]32)cc1 [Compound 1]
- effect of D30N mutation on binding (D30N mutant HIV protease): no effect

SMILES: Cc1c(O)cccc1C(=O)N[C@@H](CSc1ccccc1)[C@H](O)CN1C[C@H]2CCCC[C@H]2C[C@H]1C(=O)NC(C)(C)C [Compound 7, Nelfinavir]
- potency against the multidrug resistant strains of HIV [1]: dramatically less potent
- IC50 fold greater than that of HIV-1NL4-3 (HIV-1UIC-P62): 5 fold

SMILES: CC(C)(C)NC(=O)[C@@H]1C[C@@H]2CCCC[C@@H]2CN1C[C@@H](O)[C@H](Cc1ccccc1)NC(=O)[C@H](CC(N)=O)NC(=O)c1ccc2ccccc2n1 [Compound 4, Saquinavir]
- level of resistance of the clinical strains ([1]; compared to wild-type clinical strain HIV-1ERS104pre): 3-31 fold
- potency against the multidrug resistant strains of HIV [1]: dramatically less potent
- sensitivity compared with the parental HIV-1NL4-3 (HIV-1UIC-P62): as sensitive

SMILES: CC(C)(C)NC(=O)[C@@H]1CN(Cc2cccnc2)CCN1C[C@@H](O)C[C@@H](Cc1ccccc1)C(=O)N[C@H]1c2ccccc2C[C@H]1O [Compound 6, Indinavir]
- potency against the multidrug resistant strains of HIV [1]: dramatically less potent
- IC50 fold greater than that of HIV-1NL4-3 (HIV-1UIC-P62): 7 fold

SMILES: CC(C)CN(C[C@@H](O)[C@H](Cc1ccccc1)NC(=O)O[C@H]1CCOC1)S(=O)(=O)c1ccc(N)cc1 [Compound 2, Amprenavir]
- potency against the multidrug resistant strains of HIV [1]: dramatically less potent

SMILES: CC(C)c1nc(CN(C)C(=O)N[C@H](C(=O)N[C@@H](Cc2ccccc2)C[C@H](O)[C@H](Cc2ccccc2)NC(=O)OCc2cncs2)C(C)C)cs1 [Compound 5, Ritonavir]
- potency against the multidrug resistant strains of HIV [1]: dramatically less potent
- sensitivity compared with the parental HIV-1NL4-3 (HIV-1UIC-P62): as sensitive
